The values that follow come from US10239882B2, “Substituted 5-methyl-[1,2,4]triazolo[1,5-a]pyrimidin-2-amine compounds as PDE2 inhibitors” (DART NEUROSCIENCE (CAYMAN) LTD., priority 2014, dated 2019).

Chain of FLAG-tagged PDE2A1 (amino acids 2-941) (O00408 2-941): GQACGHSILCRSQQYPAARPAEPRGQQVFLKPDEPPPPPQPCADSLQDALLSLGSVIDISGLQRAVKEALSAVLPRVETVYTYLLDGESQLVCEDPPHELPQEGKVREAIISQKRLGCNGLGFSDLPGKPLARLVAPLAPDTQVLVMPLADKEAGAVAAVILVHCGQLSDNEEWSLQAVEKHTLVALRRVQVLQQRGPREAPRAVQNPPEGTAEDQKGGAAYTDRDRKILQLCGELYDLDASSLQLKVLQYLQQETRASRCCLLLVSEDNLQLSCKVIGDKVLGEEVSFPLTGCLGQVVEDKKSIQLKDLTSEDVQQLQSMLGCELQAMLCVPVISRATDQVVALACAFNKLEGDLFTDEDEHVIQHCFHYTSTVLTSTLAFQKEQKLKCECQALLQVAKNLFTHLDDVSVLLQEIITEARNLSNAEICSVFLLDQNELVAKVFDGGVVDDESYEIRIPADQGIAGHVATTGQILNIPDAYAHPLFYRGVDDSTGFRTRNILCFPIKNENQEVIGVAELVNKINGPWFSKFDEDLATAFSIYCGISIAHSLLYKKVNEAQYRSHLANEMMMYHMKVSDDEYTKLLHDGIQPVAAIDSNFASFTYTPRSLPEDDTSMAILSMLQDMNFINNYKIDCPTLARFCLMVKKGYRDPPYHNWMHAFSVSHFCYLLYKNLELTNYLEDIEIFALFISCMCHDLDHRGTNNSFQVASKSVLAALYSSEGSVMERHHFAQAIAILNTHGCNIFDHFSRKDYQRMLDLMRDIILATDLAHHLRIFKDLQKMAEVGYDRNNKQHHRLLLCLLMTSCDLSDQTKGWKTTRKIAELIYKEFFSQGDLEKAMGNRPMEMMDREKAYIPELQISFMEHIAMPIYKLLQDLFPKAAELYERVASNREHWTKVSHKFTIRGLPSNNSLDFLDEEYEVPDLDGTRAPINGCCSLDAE

The first test addresses FLAG-tagged PDE2A1 (amino acids 2-941) (Homo sapiens (Human), UniProt O00408). In words: IMAP TR-FRET PDE2A enzymatic assay. The note with it: 200 nM FAM-cAMP substrate, 11-point half-log dose-response. The test is classed as biochemical.
`Cc1cc(C2(C)CC2)n2nc(NCc3cn(-c4ccccc4)nc3C)nc2n1` [Example 76, 5-Methyl-N-[(3-methyl-1-phenyl-1H-pyrazol-4-yl)methyl]-7-(1-methylcyclopropyl)-[1,2,4]triazolo[1,5-a]pyrimidin-2-amine]: the “PDE2 (PIC50)” value is given as above 7. Same read-out and setting: to `Cc1cc(C2CCOCC2)n2nc(NCc3ccc(F)c(Cl)c3F)nc2n1` [Example 78, N-[(3-Chloro-2,4-difluorophenyl)methyl]-5-methyl-7-(oxan-4-yl)-[1,2,4]triazolo[1,5-a]pyrimidin-2-amine] belongs above 7. For `Cc1cc(C2CCOCC2)n2nc(NCc3cc(Cl)c(F)cc3F)nc2n1` [Example 80, N-[(5-Chloro-2,4-difluorophenyl)methyl]-5-methyl-7-(oxan-4-yl)-[1,2,4]triazolo[1,5-a]pyrimidin-2-amine], the “PDE2 (PIC50)” value is recorded as above 7. Turning to `Cc1cc(C2CCOCC2)n2nc(NCc3cc(F)cc(Br)c3)nc2n1` [Example 81, N-[(3-Bromo-5-fluorophenyl)methyl]-5-methyl-7-(oxan-4-yl)-[1,2,4]triazolo[1,5-a]pyrimidin-2-amine], the “PDE2 (PIC50)” value was above 7. Same read-out and setting: to `Cc1cc(C2CCOCC2)n2nc(NCc3cc(-c4ccccc4)nn3C)nc2n1` [Example 82, 5-Methyl-N-[(1-methyl-3-phenyl-1H-pyrazol-5-yl)methyl]-7-(oxan-4-yl)-[1,2,4]triazolo[1,5-a]pyrimidin-2-amine] belongs above 7; to `Cc1cc(C2CCOCC2)n2nc(NCc3cccc(Br)c3F)nc2n1` [Example 83, N-[(3-Bromo-2-fluorophenyl)methyl]-5-methyl-7-(oxan-4-yl)-[1,2,4]triazolo[1,5-a]pyrimidin-2-amine], above 7; to `Cc1cc(C2CCOCC2)n2nc(NCc3cc(F)cc(Cl)c3)nc2n1` [Example 84, N-[(3-Chloro-5-fluorophenyl)methyl]-5-methyl-7-(oxan-4-yl)-[1,2,4]triazolo[1,5-a]pyrimidin-2-amine], above 7. Same read-out and setting: to `Cc1cc(C2CCOCC2)n2nc(NCc3cc(C(F)(F)F)nn3C)nc2n1` [Example 85, 5-Methyl-N-{[1-methyl-3-(trifluoromethyl)-1H-pyrazol-5-yl]methyl}-7-(oxan-4-yl)-[1,2,4]triazolo[1,5-a]pyrimidin-2-amine] belongs above 7.

Still in this test, the particulars now being: 200 nM FAM-cAMP substrate, 11-point half-log dose-response, read-out: PDE2 (PIC50).
With `COc1ccc(CNc2nc3nc(C)cc(C4(C)CC4)n3n2)cc1` [Example 75, N-[(4-Methoxyphenyl)methyl]-5-methyl-7-(1-methylcyclopropyl)-[1,2,4]triazolo[1,5-a]pyrimidin-2-amine], the IC50 fell in the range of 100 to 1000 nM. Same read-out and setting: to `COc1ccc(CNc2nc3nc(C)cc(C(C)(C)OC)n3n2)cc1` [Example 77, N-[(4-Methoxyphenyl)methyl]-7-(2-methoxypropan-2-yl)-5-methyl-[1,2,4]triazolo[1,5-a]pyrimidin-2-amine] belongs 1000 to 10000 nM; to `Cc1cc(C2CCOCC2)n2nc(NCc3cccc(C#N)c3)nc2n1` [Example 86, 3-({[5-Methyl-7-(oxan-4-yl)-[1,2,4]triazolo[1,5-a]pyrimidin-2-yl]amino}methyl)benzonitrile], 100 to 1000 nM.
